This passage reports IC50 results from patent US20240383875A1, “Benzimidazole Pyridine Derivatives” (Hoffmann-La Roche Inc., priority 2022, published 2024).

Common to all, as to assay type: biochemical
Assay [1] concerns the target SIK1 (Homo sapiens, UniProt P57059). In words: Enzymatic activity assay SIK1, RapidFire mass spectrometry (phosphorylation of CHK-peptide). The following applies: RapidFire MS, inhibition of SIK1; read-out: SIK1 RF IC50. On the procedure:
(§1) Assay description SIK1-3, RapidFire:
(§2) In the presence of SIK2 (resp. SIK1 or SIK3) and ATP the CHK-peptide ([…] with C-terminal arginine amide modification) were phosphorylated at one of the four feasible serine's. Only one phosphorylation is observed under the assay conditions. 60 nl of each compound dilution series (12 point; dilution factor 3, generally 30 μM to 170 pM) in DMSO were transferred by acoustic dispensing to the assay plate and 30 min pre-incubated (ambient temperature) after the addition of 5 μl SIK1 (5 nM) resp. 5 μl SIK2 (0.5 nM) or 7 μl SIK3 (1.5 nM) in assay-buffer (12.5 mM HEPES (pH 7.0), 10 mM magnesium acetate, 0.005% BSA). 10 μM CHK-peptide solution and 5 μl 100 μM ATP for SIK1 & SIK2 resp. 3 μl for SIK3 in assay-buffer were added and incubated ambient for 45 min. 40 μl 0.125% formic acid in water were added to quench the reaction. RapidFire (RF) Mass Spectrometry was utilized for data generation as described below. The multiple charged species (3-5 charges) for the phosphorylated and non-phosphorylated form measured by MRM (Multiple Reaction Monitoring; API5000 or 6500+) or EIC (Extracted Ion Current; QToF) were summed up and the ratio calculated (sum phosphorylated species/sum all species) for data evaluation. Normalization was performed by Genedata software based on the non-inhibition control DMSO and the commercially available SIK inhibitor @ 1 μM YKL-05-099 (CAS number 1936529-65-5). The results of the assay are expressed in half-maximal inhibitory concentrations (IC50s) and are summarized below in Table 1.
(§3) Samples were aspirated by vacuum for max. 600 ms and loaded to C4-cartridge (Agilent; #G9203A) for 3000 ms@1.5 ml/min with 0.1% formic acid in water. Afterwards samples were transferred to the APT5000 (APT6500+) or QToF mass spectrometer for 4000 ms@1.25 ml/min with 90% acetonitrile; 10% water; 0.007% TFA; 0.093 formic acid. The cartridge was reconditioned for additional 500 ms with 0.1% formic acid in water
(§4) All MS analyses using the following MS-setup in MRM mode: Electrospray positive; Ion Spray Voltage: 4000V; Temperature: 550° C.; Collision Gas: 5; Curtain Gas: 15; Gas1: 40; Gas 2: 42; EP: 10
(§5) MS-Setup Agilent QToF 6545
(§6) All MS analyses using the following MS-setup in Mode MS: Dual AJS Electrospray positive; VCap: 3000V; Drying & Sheath gas: 340° C.@81/min; Nebulizer: 60 psig; Nozzle Voltage: 2000V; Fragmentor: 130V; Skimmer: 35V; Oct1 RF Vpp: 700V; Ref masses on@5spectra/s

In assay [2] the target is SIK2 (Homo sapiens, UniProt Q9H0K1). Nature of the assay: Enzymatic activity assay SIK2, RapidFire mass spectrometry (phosphorylation of CHK-peptide). As to conditions: RapidFire MS, inhibition of SIK2; read-out: SIK2 RF IC50. The procedure: as §1
Sequence of SIK2 (Q9H0K1 whole entry): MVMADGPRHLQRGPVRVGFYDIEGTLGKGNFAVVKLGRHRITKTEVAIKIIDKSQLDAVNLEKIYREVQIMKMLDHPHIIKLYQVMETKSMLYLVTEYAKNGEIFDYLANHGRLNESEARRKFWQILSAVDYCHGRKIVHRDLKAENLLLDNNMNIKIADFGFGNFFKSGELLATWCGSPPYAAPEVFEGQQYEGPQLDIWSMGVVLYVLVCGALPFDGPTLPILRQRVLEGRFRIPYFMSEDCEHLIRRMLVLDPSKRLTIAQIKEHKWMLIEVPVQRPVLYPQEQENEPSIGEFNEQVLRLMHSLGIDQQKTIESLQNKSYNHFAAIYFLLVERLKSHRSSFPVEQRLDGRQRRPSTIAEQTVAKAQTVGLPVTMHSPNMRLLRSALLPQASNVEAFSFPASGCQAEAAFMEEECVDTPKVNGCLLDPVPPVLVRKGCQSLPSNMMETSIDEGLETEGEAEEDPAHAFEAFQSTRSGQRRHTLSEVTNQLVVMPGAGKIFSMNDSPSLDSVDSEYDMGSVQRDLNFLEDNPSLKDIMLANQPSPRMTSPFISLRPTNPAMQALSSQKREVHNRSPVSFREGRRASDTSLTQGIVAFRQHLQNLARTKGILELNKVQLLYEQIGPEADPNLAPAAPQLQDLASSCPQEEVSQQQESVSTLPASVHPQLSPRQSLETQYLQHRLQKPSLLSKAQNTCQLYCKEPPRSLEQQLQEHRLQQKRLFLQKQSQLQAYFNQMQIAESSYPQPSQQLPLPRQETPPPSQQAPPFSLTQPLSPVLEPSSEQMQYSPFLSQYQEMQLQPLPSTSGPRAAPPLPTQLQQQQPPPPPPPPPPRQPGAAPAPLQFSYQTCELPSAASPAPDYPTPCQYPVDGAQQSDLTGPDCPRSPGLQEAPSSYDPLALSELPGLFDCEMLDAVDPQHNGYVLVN
as §2, with “Only one phosphorylation is observed under the assay conditions. 60 nl of each compound dilution series (12 point; dilution factor 3, generally 30 μM to 170 pM) in DMSO were transferred by acoustic dispensing to the assay plate and 30 min pre-incubated (ambient temperature) after the addition of 5 μl SIK1 (5 nM) resp.” left out, “1936529-65-5).” for “1936529-65-5). The results of the assay are expressed in half-maximal inhibitory concentrations (IC50s) and are summarized below in Table 1.”
as §3, §4, §5, §6

The target in assay [3] is SIK3 (Homo sapiens, UniProt Q9Y2K2). In words: Enzymatic activity assay SIK3, RapidFire mass spectrometry (phosphorylation of CHK-peptide). The following applies: RapidFire MS, inhibition of SIK3; read-out: SIK3 RF IC50. The procedure:
as §1, §2, §3, §4, §5, §6

Sequence of SIK1 (P57059 whole entry): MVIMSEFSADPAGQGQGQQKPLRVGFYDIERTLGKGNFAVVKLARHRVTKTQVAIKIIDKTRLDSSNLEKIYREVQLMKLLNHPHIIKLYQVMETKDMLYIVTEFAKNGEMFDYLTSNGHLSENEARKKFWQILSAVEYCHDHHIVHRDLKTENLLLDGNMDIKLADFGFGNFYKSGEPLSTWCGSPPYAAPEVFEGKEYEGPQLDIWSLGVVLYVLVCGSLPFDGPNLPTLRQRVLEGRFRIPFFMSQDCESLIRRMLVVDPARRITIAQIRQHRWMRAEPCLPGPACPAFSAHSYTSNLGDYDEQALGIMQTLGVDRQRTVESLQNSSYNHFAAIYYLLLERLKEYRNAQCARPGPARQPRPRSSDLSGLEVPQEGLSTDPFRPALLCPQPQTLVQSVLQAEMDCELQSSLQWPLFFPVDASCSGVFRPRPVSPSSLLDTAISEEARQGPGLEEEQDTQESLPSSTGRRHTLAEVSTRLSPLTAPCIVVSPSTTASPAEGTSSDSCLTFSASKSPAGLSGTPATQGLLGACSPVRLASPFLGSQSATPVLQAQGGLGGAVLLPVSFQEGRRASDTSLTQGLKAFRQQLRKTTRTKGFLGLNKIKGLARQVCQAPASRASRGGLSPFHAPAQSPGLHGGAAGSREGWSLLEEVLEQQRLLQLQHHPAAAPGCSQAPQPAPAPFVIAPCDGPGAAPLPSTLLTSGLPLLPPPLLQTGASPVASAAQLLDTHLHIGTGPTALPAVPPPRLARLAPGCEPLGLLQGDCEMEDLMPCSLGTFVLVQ
Sequence of SIK3 (Q9Y2K2 whole entry): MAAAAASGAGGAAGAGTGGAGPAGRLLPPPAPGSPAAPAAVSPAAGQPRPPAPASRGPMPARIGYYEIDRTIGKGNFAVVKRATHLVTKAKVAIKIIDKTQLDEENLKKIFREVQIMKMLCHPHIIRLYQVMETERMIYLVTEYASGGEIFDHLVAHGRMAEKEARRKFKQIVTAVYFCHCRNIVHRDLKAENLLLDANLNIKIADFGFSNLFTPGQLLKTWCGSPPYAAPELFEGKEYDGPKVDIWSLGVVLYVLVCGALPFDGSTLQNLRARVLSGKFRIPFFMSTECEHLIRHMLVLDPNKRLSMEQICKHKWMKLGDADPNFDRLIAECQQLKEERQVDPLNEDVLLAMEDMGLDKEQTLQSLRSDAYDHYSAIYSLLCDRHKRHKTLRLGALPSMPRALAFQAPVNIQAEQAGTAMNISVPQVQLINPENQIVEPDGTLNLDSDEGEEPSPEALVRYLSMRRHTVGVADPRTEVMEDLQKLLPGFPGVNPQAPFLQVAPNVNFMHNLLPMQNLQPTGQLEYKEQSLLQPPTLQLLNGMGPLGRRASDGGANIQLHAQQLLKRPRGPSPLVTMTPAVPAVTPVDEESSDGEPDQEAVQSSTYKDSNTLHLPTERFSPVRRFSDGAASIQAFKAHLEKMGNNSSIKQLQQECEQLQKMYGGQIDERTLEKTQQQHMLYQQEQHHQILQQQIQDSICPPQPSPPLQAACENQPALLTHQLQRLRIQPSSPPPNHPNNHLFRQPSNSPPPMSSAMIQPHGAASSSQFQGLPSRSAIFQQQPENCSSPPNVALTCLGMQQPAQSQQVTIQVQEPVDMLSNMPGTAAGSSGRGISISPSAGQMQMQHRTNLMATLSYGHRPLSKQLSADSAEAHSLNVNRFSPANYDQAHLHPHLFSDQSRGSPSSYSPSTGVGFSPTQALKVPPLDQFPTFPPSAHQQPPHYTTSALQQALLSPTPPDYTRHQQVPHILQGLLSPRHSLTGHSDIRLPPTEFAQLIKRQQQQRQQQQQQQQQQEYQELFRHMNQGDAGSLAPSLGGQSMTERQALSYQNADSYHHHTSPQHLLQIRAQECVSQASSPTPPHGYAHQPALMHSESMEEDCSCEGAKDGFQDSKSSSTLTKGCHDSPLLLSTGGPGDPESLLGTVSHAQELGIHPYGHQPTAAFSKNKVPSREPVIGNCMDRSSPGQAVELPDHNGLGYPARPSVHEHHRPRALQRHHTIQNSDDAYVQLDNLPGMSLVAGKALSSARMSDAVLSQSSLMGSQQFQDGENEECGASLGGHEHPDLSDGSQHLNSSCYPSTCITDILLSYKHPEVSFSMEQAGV

Usually IC50 stands for the midpoint of a concentration-inhibition curve. In the case of `Cc1cc(C#N)nn1-c1nc(-n2cnc3cc(N4CCN(C5COC5)CC4)ccc32)ccc1C(C)O` (stereo not drawn) [Example 67, 1-[3-(1-Hydroxyethyl)-6-[5-[4-(oxetan-3-yl)piperazin-1-yl]benzimidazol-1-yl]-2-pyridyl]-5-methyl-pyrazole-3-carbonitrile], the IC50 stood at 767 nM in assay [1], 132 nM in assay [2] and 97.9 nM in assay [3].
For `Cc1cc(C#N)nn1-c1nc(-n2cnc3cc(OCCN4CCOCC4)ccc32)ccc1C(C)O` (stereo not drawn) [Example 68, 1-[3-(1-Hydroxyethyl)-6-[5-(2-morpholinoethoxy)benzimidazol-1-yl]-2-pyridyl]-5-methyl-pyrazole-3-carbonitrile], the figures for the IC50 in assay [1], in assay [2] and in assay [3] were 179 nM, 27.7 nM and 29.7 nM, respectively.
For `Cc1cc(C#N)nn1-c1nc(-n2cnc3cc(Nc4cnn(C5COC5)c4)ccc32)ccc1C(C)O` (stereo not drawn) [Example 71, 1-[3-(1-Hydroxyethyl)-6-[5-[[1-(oxetan-3-yl)pyrazol-4-yl]amino]benzimidazol-1-yl]-2-pyridyl]-5-methyl-pyrazole-3-carbonitrile], the IC50 in assay [1] was 5 nM; in assay [2], 1.4 nM; in assay [3], 2.2 nM.
On the same counts, the results for `Cc1cc(C#N)nn1-c1nc(-n2cnc3cc(Nc4cnn(C5CNC5)c4)ccc32)ccc1C(C)O` (stereo not drawn) [Example 72, 1-[6-[5-[[1-(Azetidin-3-yl)pyrazol-4-yl]amino]benzimidazol-1-yl]-3-(1-hydroxyethyl)-2-pyridyl]-5-methyl-pyrazole-3-carbonitrile] are 5 nM, 1 nM and 2.1 nM.
In the same order, the values of `Cc1ccc(Oc2ccc3ncn(-c4ccc(C(C)O)c(-n5nc(C#N)cc5C)n4)c3c2)nn1` (stereo not drawn) [Example 74, 1-[3-(1-Hydroxyethyl)-6-[6-(6-methylpyridazin-3-yl)oxybenzimidazol-1-yl]-2-pyridyl]-5-methyl-pyrazole-3-carbonitrile] are 45 nM, 36.6 nM and 190 nM.
In the same order, the values of `Cc1ccc(Oc2ccc3c(c2)ncn3-c2ccc(C(C)O)c(-n3nc(C#N)cc3C)n2)nn1` (stereo not drawn) [Example 75, 1-[3-(1-Hydroxyethyl)-6-[5-(6-methylpyridazin-3-yl)oxybenzimidazol-1-yl]-2-pyridyl]-5-methyl-pyrazole-3-carbonitrile] are 1440 nM, 38.4 nM and 6.3 nM.
For `Cc1ccc(Nc2ccc3c(c2)ncn3-c2ccc(C(C)O)c(-c3c(C#N)cnn3C)n2)nn1` (stereo not drawn) [Example 76, 5-[3-(1-Hydroxyethyl)-6-[5-[(6-methylpyridazin-3-yl)amino]benzimidazol-1-yl]-2-pyridyl]-1-methyl-pyrazole-4-carbonitrile], the results for the IC50 in assay [1], in assay [2] and in assay [3] were 7390 nM, 327 nM and 66.2 nM, respectively.
On the same counts, the results for `Cc1cc(C#N)nn1-c1nc(-n2cnc3cc(N4CC[C@@H](O)C4)ccc32)ccc1C(C)O` (stereo partly drawn) [Example 77, 1-[3-(1-Hydroxyethyl)-6-[5-[(3R)-3-hydroxypyrrolidin-1-yl]benzimidazol-1-yl]-2-pyridyl]-5-methyl-pyrazole-3-carbonitrile; formic acid] are 28 nM, 10.1 nM and 15.7 nM.
In the same order, the values of `Cc1cc(C#N)nn1-c1nc(-n2cnc3cc(N4CC[C@H](O)C4)ccc32)ccc1C(C)O` (stereo partly drawn) [Example 78, 1-[3-(1-hydroxyethyl)-6-[5-[(3S)-3-hydroxypyrrolidin-1-yl]benzimidazol-1-yl]-2-pyridyl]-5-methyl-pyrazole-3-carbonitrile; formic acid] are 33 nM, 11.4 nM and 20.4 nM.
On the same counts, the results for `Cc1ccc(Nc2ccc3c(c2)ncn3-c2ccc(C(C)O)c(-n3nc(C#N)cc3C)n2)cn1` (stereo not drawn) [Example 81, 1-[3-(1-Hydroxyethyl)-6-[5-[(6-methyl-3-pyridyl)amino]benzimidazol-1-yl]-2-pyridyl]-5-methyl-pyrazole-3-carbonitrile] are 9 nM, 2.3 nM and 0.8 nM.
Regarding `Cc1cnc(Nc2ccc3c(c2)ncn3-c2ccc(C(C)O)c(-n3nc(C#N)cc3C)n2)cn1` (stereo not drawn) [Example 82, 1-[3-(1-Hydroxyethyl)-6-[5-[(5-methylpyrazin-2-yl)amino]benzimidazol-1-yl]-2-pyridyl]-5-methyl-pyrazole-3-carbonitrile], the half-maximal inhibitory concentration (IC50) in assay [1] worked out at 5 nM; in assay [2] it was 2.2 nM; in assay [3], 2.4 nM.
On the same counts, the results for `Cc1cnc(Nc2ccc3c(c2)ncn3-c2ccc(C(C)O)c(-n3nc(C#N)cc3C)n2)nc1` (stereo not drawn) [Example 83, 1-[3-(1-Hydroxyethyl)-6-[5-[(5-methylpyrimidin-2-yl)amino]benzimidazol-1-yl]-2-pyridyl]-5-methyl-pyrazole-3-carbonitrile] are 2 nM, 1.5 nM and 1.8 nM.
Regarding `Cc1ccc(Nc2ccc3c(c2)ncn3-c2ccc(C(C)O)c(-n3nc(C#N)cc3C)n2)nc1` (stereo not drawn) [Example 84, 1-[3-(1-hydroxyethyl)-6-[5-[(5-methyl-2-pyridyl)amino]benzimidazol-1-yl]-2-pyridyl]-5-methyl-pyrazole-3-carbonitrile], the IC50 in assay [1] stood at 7 nM; in assay [2] it was 5.3 nM; in assay [3], 2.1 nM.
In the same order, the values of `Cc1ccc(Nc2ccc3c(c2)ncn3-c2ccc(C(C)O)c(N3CCCS3(=O)=O)n2)nn1` (stereo not drawn) [Example 85, 1-[2-(1,1-dioxo-1,2-thiazolidin-2-yl)-6-[5-[(6-methylpyridazin-3-yl)amino]benzimidazol-1-yl]-3-pyridyl]ethanol] are 1070 nM, 818 nM and 1910 nM.
On the same counts, the results for `Cc1ncc(Nc2ccc3c(c2)ncn3-c2ccc(C(C)O)c(-n3nc(C#N)cc3C)n2)cn1` (stereo not drawn) [Example 86, 1-[3-(1-Hydroxyethyl)-6-[5-[(2-methylpyrimidin-5-yl)amino]benzimidazol-1-yl]-2-pyridyl]-5-methyl-pyrazole-3-carbonitrile] are 62 nM, 6 nM and 1.5 nM.
In the same order, the values of `Cc1cc(C#N)nn1-c1nc(-n2cnc3cc(Nc4ccnnc4)ccc32)ccc1C(C)O` (stereo not drawn) [Example 87, 1-[3-(1-Hydroxyethyl)-6-[5-(pyridazin-4-ylamino)benzimidazol-1-yl]-2-pyridyl]-5-methyl-pyrazole-3-carbonitrile] are 22 nM, 9.6 nM and 2.9 nM.
Regarding `COc1ccc(Nc2ccc3c(c2)ncn3-c2ccc(C(C)O)c(-n3nc(C#N)cc3C)n2)nn1` (stereo not drawn) [Example 88, 1-[3-(1-Hydroxyethyl)-6-[5-[(6-methoxypyridazin-3-yl)amino]benzimidazol-1-yl]-2-pyridyl]-5-methyl-pyrazole-3-carbonitrile], the results for the IC50 in assay [1], in assay [2] and in assay [3] were 62 nM, 2.2 nM and 0.8 nM, respectively.
On the same counts, the results for `Cc1cc(C#N)nn1-c1nc(-n2cnc3cc(Nc4cccnn4)ccc32)ccc1C(C)O` (stereo not drawn) [Example 89, 1-[3-(1-Hydroxyethyl)-6-[5-(pyridazin-3-ylamino)benzimidazol-1-yl]-2-pyridyl]-5-methyl-pyrazole-3-carbonitrile] are 95 nM, 1.2 nM and 0.7 nM.
